pIC50: −log10 of the molar value. Starred links: 1 amine or outer side, 2 acyl side, 3 side chain; linkers in the order of their positions; H or OH if unused. Positions of bridges follow the written chain, without caps; N, C: chain ends. Non-standard residues stand in square brackets, D forms with d. Residues, ends and D or L forms follow the SMILES beside them. Groups on a side chain read outwards from the residue. *: point of attachment. X13 = O=C(O)CCCCCCCCCCCCCCC(=O)N[C@@H](CCC(=O)NCCCOCCOCCOCCCN*)C(=O)O; Trp(1-CH2COOH) = N[C@@H](Cc1cn(CC(=O)O)c2ccccc12)C(=O)O; X10 = O=C(O)CCCCCCCCCCCCCCC(=O)N[C@@H](CN*)C(=O)O; C18 diacid = O=C(O)CCCCCCCCCCCCCCCCC(=O)*; Phe(4-F) = N[C@@H](Cc1ccc(F)cc1)C(=O)O; γGlu = O=C(O)[C@H](CCC(=O)[*:2])N[*:1]; d(cisHyp) = O=C(O)[C@H]1C[C@@H](O)CN1; βAsp = O=C(O)[C@H](CC(=O)[*:2])N[*:1]; NH(CH2)12COOH = O=C(O)CCCCCCCCCCCCN*; Bta = N[C@@H](Cc1csc2ccccc12)C(=O)O; Ethylenediamine = C(CN[*:2])N[*:1]; PEG6 = NCCOCCOCCOCCOCCOCCOCCC(=O)O; cisHyp = O=C(O)[C@@H]1C[C@H](O)CN1; Palmitoyl = CCCCCCCCCCCCCCCC(=O)*; Hyp = O=C(O)[C@@H]1C[C@@H](O)CN1; Myristoyl = CCCCCCCCCCCCCC(=O)*; NMeNle = CCCC[C@H](NC)C(=O)O; Dap(Me) = CNC[C@H](N)C(=O)O; Pip = O=C(O)[C@@H]1CCCCN1; NMeA = CN[C@@H](C)C(=O)O; Pra = C#CC[C@H](N)C(=O)O; Aun = NCCCCCCCCCCC(=O)O; Dab = NCC[C@H](N)C(=O)O; Dap = NC[C@H](N)C(=O)O
Each compound was assayed against T1, PD-L1 (Homo sapiens, UniProt Q9NZQ7) (assay: PD-1/PD-L1 Homogenous Time-Resolved Fluorescence (HTRF) binding assay (PD-1-Ig/PD-L1-His)). Settings: inhibition of PD-1-Ig binding to PD-L1-TVMV-His; value given as range class; read-out: HTRF IC50.
T1 construct: hPDL1(19-239)-TVMV-His; made in house; host or cells: HEK293T
Summary of the method: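 Inhibitors pre-incubated 15 min with PD-L1-His (10 nM final), then PD-1-Ig (20 nM final) added for 15 min in dPBS/0.1% BSA/0.05% Tween-20. Eu-cryptate anti-Ig (1 nM) and APC anti-His (20 nM) added, 30 min equilibration, 665/620 nm HTRF ratio read.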

T1 sequence (Q9NZQ7 with tags, fused parts or gaps): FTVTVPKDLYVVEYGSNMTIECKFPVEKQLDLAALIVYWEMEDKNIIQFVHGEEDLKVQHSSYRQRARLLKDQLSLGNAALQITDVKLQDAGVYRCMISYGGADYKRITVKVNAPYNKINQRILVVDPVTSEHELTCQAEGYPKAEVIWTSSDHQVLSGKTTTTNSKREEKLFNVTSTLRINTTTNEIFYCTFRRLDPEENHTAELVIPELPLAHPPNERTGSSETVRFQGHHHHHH

SMILES	pIC50
CCCCCCCCCCCCCCCC(=O)NCCCC[C@H](NC(=O)CNC(=O)[C@H](CO)NC(=O)CNC(=O)[C@H](CO)NC(=O)CNC(=O)[C@@H]1CSCC(=O)N[C@@H](Cc2ccc(O)cc2)C(=O)N(C)[C@@H](C)C(=O)N[C@@H](CC(N)=O)C(=O)N2CCC[C@H]2C(=O)N[C@@H](CCN)C(=O)N[C@@H](CC(C)C)C(=O)N2C[C@H](O)C[C@H]2C(=O)N[C@@H](Cc2c[nH]c3ccccc23)C(=O)N[C@@H](CO)C(=O)N[C@@H](Cc2c[nH]c3ccccc23)C(=O)N(C)[C@@H](CCCC)C(=O)N(C)[C@@H](CCCC)C(=O)N[C@@H](CCCNC(=N)N)C(=O)N1)C(N)=O [Example 11021] ({CH2CO}-Y[NMeA]NP[Dab]L[Hyp]WSW[NMeNle][NMeNle]RCGSGSGK(Palmitoyl)-NH2; thioether N-14)	5.80 to 7.00
CCCC[C@H]1C(=O)N(C)[C@@H](CCCC)C(=O)N[C@@H](CC(C)C)C(=O)N[C@H](C(=O)NCC(=O)N[C@@H](CCC(=O)NCCNC(=O)CC[C@H](NC(=O)CCCCCCCCCCCCCCCCC(=O)O)C(=O)O)C(=O)O)CSCC(=O)N[C@@H](Cc2ccc(F)cc2)C(=O)N2CCCC[C@H]2C(=O)N[C@@H](CC(=O)O)C(=O)N2CCC[C@H]2C(=O)N[C@@H](CN)C(=O)N[C@@H](CC(C)C)C(=O)N2C[C@H](O)C[C@H]2C(=O)N[C@@H](Cc2c[nH]c3ccccc23)C(=O)N[C@@H](CCN)C(=O)N[C@@H](Cc2cn(CC(=O)O)c3ccccc23)C(=O)N1C [Example 14123] ({CH2CO}-[Phe(4-F)][Pip]DP[Dap]L[Hyp]W[Dab][Trp(1-CH2COOH)][NMeNle][NMeNle]LCGE([Ethylenediamine-γGlu-C18 diacid])-OH; thioether N-14)	8.00 to 9.52
CCCC[C@H]1C(=O)N(C)[C@@H](CCCC)C(=O)N[C@@H](CC(C)C)C(=O)N[C@H](C(=O)NCC(=O)NCC(=O)NCC(=O)NCCCCCCCCCCC(=O)O)CSCC(=O)N[C@@H](Cc2ccc(O)cc2)C(=O)N(C)[C@@H](C)C(=O)N[C@@H](CC(N)=O)C(=O)N2CCC[C@H]2C(=O)N[C@@H](CN)C(=O)N[C@@H](CC(C)C)C(=O)N2C[C@H](O)C[C@H]2C(=O)N[C@@H](Cc2c[nH]c3ccccc23)C(=O)N[C@@H](CCN)C(=O)N[C@@H](Cc2cn(CC(=O)O)c3ccccc23)C(=O)N1C [Example 11091] ({CH2CO}-Y[NMeA]NP[Dap]L[Hyp]W[Dab][Trp(1-CH2COOH)][NMeNle][NMeNle]LCGGG[Aun]-OH; thioether N-14)	8.00 to 9.52
CCCC[C@H]1C(=O)N(C)[C@@H](CCCC)C(=O)N[C@@H](CC(C)C)C(=O)N[C@H](C(=O)NCC(=O)N[C@@H](CC(=O)NCCOCCOCCOCCOCCOCCOCCC(=O)NC[C@H](NC(=O)CCCCCCCCCCCCCCC(=O)O)C(=O)O)C(=O)O)CSCC(=O)N[C@@H](Cc2ccc(O)cc2)C(=O)N(C)[C@@H](C)C(=O)N[C@@H](CC(N)=O)C(=O)N2CCC[C@H]2C(=O)N[C@@H](CN)C(=O)N[C@@H](CC(C)C)C(=O)N2C[C@H](O)C[C@@H]2C(=O)N[C@@H](Cc2c[nH]c3ccccc23)C(=O)N[C@@H](CCN)C(=O)N[C@@H](Cc2cn(CC(=O)O)c3ccccc23)C(=O)N1C [Example 11164] ({CH2CO}-Y[NMeA]NP[Dap]L[d(cisHyp)]W[Dab][Trp(1-CH2COOH)][NMeNle][NMeNle]LCG[βAsp][PEG6]-X10; thioether N-14)	8.00 to 9.52
C#CC[C@H](NC(=O)CNC(=O)[C@@H]1CSCC(=O)N[C@@H](Cc2ccc(O)cc2)C(=O)N2CCCC[C@H]2C(=O)N[C@@H](CC(N)=O)C(=O)N2CCC[C@H]2C(=O)N[C@@H](CNC)C(=O)N[C@@H](CC(C)C)C(=O)N2C[C@H](O)C[C@H]2C(=O)N[C@@H](Cc2c[nH]c3ccccc23)C(=O)N[C@@H](CCN)C(=O)N[C@@H](Cc2cn(CC(=O)O)c3ccccc23)C(=O)N(C)[C@@H](CCCC)C(=O)N(C)[C@@H](CCCC)C(=O)N[C@@H](CCC(=O)O)C(=O)N1)C(=O)O [INT130AL] ({CH2CO}-Y[Pip]NP[Dap(Me)]L[Hyp]W[Dab][Trp(1-CH2COOH)][NMeNle][NMeNle]ECG[Pra]-OH; thioether N-14)	8.00 to 9.52
CCCC[C@H]1C(=O)N(C)[C@@H](CCCC)C(=O)N[C@@H](CC(C)C)C(=O)N[C@H](C(=O)NCC(=O)NCC(=O)NCC(=O)NCCCCCCCCCCC(=O)O)CSCC(=O)N[C@@H](Cc2ccc(O)cc2)C(=O)N(C)[C@@H](C)C(=O)N[C@@H](CC(=O)O)C(=O)N2CCC[C@H]2C(=O)N[C@@H](CN)C(=O)N[C@@H](CC(C)C)C(=O)N2C[C@H](O)C[C@H]2C(=O)N[C@@H](Cc2c[nH]c3ccccc23)C(=O)N[C@@H](CCN)C(=O)N[C@@H](Cc2cn(CC(=O)O)c3ccccc23)C(=O)N1C [Example 11096] ({CH2CO}-Y[NMeA]DP[Dap]L[Hyp]W[Dab][Trp(1-CH2COOH)][NMeNle][NMeNle]LCGGG[Aun]-OH; thioether N-14)	7.00 to 8.00
CCCC[C@H]1C(=O)N(C)[C@@H](CCCC)C(=O)N[C@@H](CC(C)C)C(=O)N[C@H](C(=O)NCC(=O)NCC(=O)NCC(=O)NCCCCCCCCCCCCC(=O)O)CSCC(=O)N[C@@H](Cc2ccc(O)cc2)C(=O)N(C)[C@@H](C)C(=O)N[C@@H](CC(=O)O)C(=O)N2CCC[C@H]2C(=O)N[C@@H](Cc2cnc[nH]2)C(=O)N[C@@H](CCCCN)C(=O)N2C[C@H](O)C[C@H]2C(=O)N[C@@H](Cc2c[nH]c3ccccc23)C(=O)N[C@@H](CCCCN)C(=O)N[C@@H](Cc2cn(CC(=O)O)c3ccccc23)C(=O)N1C [Example 11216] ({CH2CO}-Y[NMeA]DPHK[Hyp]WK[Trp(1-CH2COOH)][NMeNle][NMeNle]LCGGG-{NH(CH2)12COOH}; thioether N-14)	7.00 to 8.00
CCCCCCCCCCCCCC(=O)N[C@@H](CCC(=O)NCCCC[C@H](NC(=O)CNC(=O)CNC(=O)CNC(=O)CNC(=O)[C@@H]1CSCC(=O)N[C@@H](Cc2ccc(O)cc2)C(=O)N(C)[C@@H](C)C(=O)N[C@@H](CC(N)=O)C(=O)N2CCC[C@H]2C(=O)N[C@@H](Cc2cnc[nH]2)C(=O)N[C@@H](CC(C)C)C(=O)N2C[C@H](O)C[C@H]2C(=O)N[C@@H](Cc2c[nH]c3ccccc23)C(=O)N[C@@H](CO)C(=O)N[C@@H](Cc2c[nH]c3ccccc23)C(=O)N(C)[C@@H](CCCC)C(=O)N(C)[C@@H](CCCC)C(=O)N[C@@H](CCCNC(=N)N)C(=O)N1)C(N)=O)C(=O)O [Example 11114] ({CH2CO}-Y[NMeA]NPHL[Hyp]WSW[NMeNle][NMeNle]RCGGGGK([γGlu-Myristoyl])-NH2; thioether N-14)	5.80 to 7.00
CCCC[C@H]1C(=O)N(C)[C@@H](CCCC)C(=O)N[C@@H](CC(C)C)C(=O)C[C@H](C(=O)NCC(=O)N[C@@H](CCC(=O)O)C(=O)NCCCOCCOCCOCCCNC(=O)CC[C@H](NC(=O)CCCCCCCCCCCCCCCCC(=O)O)C(=O)O)CSCC(=O)N[C@@H](Cc2ccc(O)cc2)C(=O)N(C)[C@@H](C)C(=O)N[C@@H](CC(N)=O)C(=O)N2CCC[C@H]2C(=O)N[C@@H](CN)C(=O)N[C@@H](CC(C)C)C(=O)N2C[C@H](O)C[C@H]2C(=O)N[C@@H](Cc2c[nH]c3ccccc23)C(=O)N[C@@H](CCN)C(=O)N[C@@H](Cc2cn(CC(=O)O)c3ccccc23)C(=O)N1C [Example 11167]	8.00 to 9.52
CCCC[C@H]1C(=O)N(C)[C@@H](CCCC)C(=O)N[C@@H](CC(C)C)C(=O)N[C@H](C(=O)NCC(=O)NCCCOCCOCCOCCCNC(=O)CC[C@H](NC(=O)CCCCCCCCCCCCCCC(=O)O)C(=O)O)CSCC(=O)N[C@@H](Cc2ccc(O)cc2)C(=O)N(C)[C@@H](C)C(=O)N[C@@H](CC(N)=O)C(=O)N2CCC[C@@H]2C(=O)N[C@@H](CN)C(=O)N[C@@H](CC(C)C)C(=O)N2C[C@H](O)C[C@@H]2C(=O)N[C@@H](Cc2c[nH]c3ccccc23)C(=O)N[C@@H](CCN)C(=O)N[C@@H](Cc2cn(CC(=O)O)c3ccccc23)C(=O)N1C [Example 11168] ({CH2CO}-Y[NMeA]N[dP][Dap]L[d(cisHyp)]W[Dab][Trp(1-CH2COOH)][NMeNle][NMeNle]LCG-X13; thioether N-14)	8.00 to 9.52
CCCC[C@H]1C(=O)N(C)[C@@H](CCCC)C(=O)N[C@@H](CC(C)C)C(=O)N[C@H](C(=O)NCC(=O)N[C@@H](CC(=O)O)C(=O)NCCCOCCOCCOCCCNC(=O)CC[C@H](NC(=O)CCCCCCCCCCCCCCC(=O)O)C(=O)O)CSCC(=O)N[C@@H](Cc2ccc(O)cc2)C(=O)N(C)[C@@H](C)C(=O)N[C@@H](CC(N)=O)C(=O)N2CCC[C@H]2C(=O)N[C@@H](CN)C(=O)N[C@@H](CC(C)C)C(=O)N2C[C@H](O)C[C@@H]2C(=O)N[C@@H](Cc2c[nH]c3ccccc23)C(=O)N[C@@H](CCN)C(=O)N[C@@H](Cc2cn(CC(=O)O)c3ccccc23)C(=O)N1C [Example 11162] ({CH2CO}-Y[NMeA]NP[Dap]L[d(cisHyp)]W[Dab][Trp(1-CH2COOH)][NMeNle][NMeNle]LCGD-X13; thioether N-14)	5.80 to 7.00
CCCC[C@H]1C(=O)N(C)[C@@H](CCCC)C(=O)N[C@@H](CC(C)C)C(=O)N[C@H](C(=O)N[C@H](CC(=O)O)C(=O)NCC(=O)NCCCCCCCCCCCCC(=O)O)CSCC(=O)N[C@@H](Cc2ccc(O)cc2)C(=O)N(C)[C@@H](C)C(=O)N[C@@H](CC(=O)O)C(=O)N2CCC[C@@H]2C(=O)N[C@@H](Cc2cnc[nH]2)C(=O)N[C@@H](CCCCN)C(=O)N2C[C@@H](O)C[C@H]2C(=O)N[C@@H](Cc2c[nH]c3ccccc23)C(=O)N[C@@H](CCCCN)C(=O)N[C@@H](Cc2cn(CC(=O)O)c3ccccc23)C(=O)N1C [Example 11211] ({CH2CO}-Y[NMeA]D[dP]HK[cisHyp]WK[Trp(1-CH2COOH)][NMeNle][NMeNle]LC[dD]G-{NH(CH2)12COOH}; thioether N-14)	8.00 to 9.52
C#CC[C@H](NC(=O)CNC(=O)[C@@H]1CSCC(=O)N[C@@H](Cc2ccc(O)cc2)C(=O)N(C)[C@@H](C)C(=O)N[C@@H](CC(N)=O)C(=O)N2CCC[C@H]2C(=O)N[C@@H](CN)C(=O)N[C@@H](CC(C)C)C(=O)N2C[C@H](O)C[C@H]2C(=O)N[C@@H](Cc2c[nH]c3ccccc23)C(=O)N[C@@H](CO)C(=O)N[C@@H](Cc2csc3ccccc23)C(=O)N(C)[C@@H](CCCC)C(=O)N(C)[C@@H](CCCC)C(=O)N[C@@H](CCCNC(=N)N)C(=O)N1)C(N)=O [INT 1300A] ({CH2CO}-Y[NMeA]NP[Dap]L[Hyp]WS[Bta][NMeNle][NMeNle]RCG[Pra]-NH2; thioether N-14)	8.00 to 9.52

From US10633419B2, “Immunomodulators” (BRISTOL-MYERS SQUIBB COMPANY, priority 2014, dated 2020)
